Source: US12325685B2, “RXR agonist salt form, polymorphs thereof, and uses thereof” (Io Therapeutics, Inc., priority 2022, dated 2025)
Converted amounts (≈) assume the structure as drawn.

Legend:
[1] = Kinetic solubility at 37° C. in water and three biorelevant media; assay type: physicochemical
Experimental: Example 7: Kinetic Solubility. Kinetic solubility measurements were conducted on Compound 1 (a free acid) and Form A Tris salt of Compound 1 at 37° C. in water and three biorelevant media: synthetic gastric fluid; fed synthetic small intestinal fluid; and fasting synthetic small intestinal fluid.

[2] = Approximate (thermodynamic) solubility in solvents at room temperature; assay type: physicochemical; details: for solubility: organic solvent or mixture, thermodynamic from solid
[3] = Fasting Synthetic Small Intestinal Fluid, 37° C., 1 Hr
[4] = Fasting Synthetic Small Intestinal Fluid, 37° C., 4 Hrs
[5] = Fasting Synthetic Small Intestinal Fluid, 37° C., 24 Hrs
[6] = Fed Synthetic Small Intestinal Fluid, 37° C., 1 Hr
[7] = Fed Synthetic Small Intestinal Fluid, 37° C., 4 Hrs
[8] = Fed Synthetic Small Intestinal Fluid, 37° C., 24 Hrs
[9] = Synthetic Gastric Fluid, 37° C., 1 Hr
[10] = Synthetic Gastric Fluid, 37° C., 4 Hrs
[11] = Synthetic Gastric Fluid, 37° C., 24 Hrs

Row | Observed kinetic aqueous solubility S [1, 3] | pH [1, 3] | Observed kinetic aqueous solubility S [1, 4] | pH [1, 4] | Observed kinetic aqueous solubility S [1, 5] | pH [1, 5] | Observed kinetic aqueous solubility S [1, 6] | pH [1, 6] | Observed kinetic aqueous solubility S [1, 7] | pH [1, 7] | pH [1, 8] | pH [1, 9] | pH [1, 10] | pH [1, 11] | Observed kinetic aqueous solubility S ([1]; Water, 37° C., 1 Hr) | pH ([1]; Water, 37° C., 1 Hr) | Observed kinetic aqueous solubility S ([1]; Water, 37° C., 4 Hrs) | pH ([1]; Water, 37° C., 4 Hrs) | Observed kinetic aqueous solubility S ([1]; Water, 37° C., 24 Hrs) | pH ([1]; Water, 37° C., 24 Hrs) | Compound | further results
1 | 0.05 mg/mL | 6.48 | 0.06 mg/mL | 6.88 | 0.04 mg/mL | 7.50 | 0.10 mg/mL | 5.09 | 0.10 mg/mL | 5.17 | 5.21 | 1.67 | 1.78 | 1.92 | 0.03 mg/mL | 7.78 | 0.03 mg/mL | 7.83 | 0.01 mg/mL | 8.33 | CC(/C=C/[C@@H]1C[C@]1(C)c1ccc2c(c1)C(C)(C)CCC2(C)C)=C\C(=O)O [Compound 1, (2E,4E)-3-methyl-5-((1 S,2S)-2-methyl-2-(5,5,8,8-tetramethyl-5,6,7,8-tetrahydronaphthalen-2-yl)cyclopropyl)penta-2,4-dienoic acid] | Observed kinetic aqueous solubility S [1, 8]: 0.44 mg/mL; kinetic solubility in synthetic gastric fluid (in words) ([1]; synthetic gastric fluid): poor or undetectable; solubility kinetic at 4 h ([1]; synthetic gastric fluid, 37 °C, simulated gastric fluid, thermodynamic from solid, Synthetic Gastric Fluid, 37° C., 4 Hrs, ND = No Detectable signal by HPLC, read-out: Observed kinetic aqueous solubility S): 0.02 mg/mL (≈ 0.0567 mM); Approximate Solubility ([2]; 2-Butanol, listed as Compound 1 (Free Acid)): 108.9 to 140.0 mg/mL; Approximate Solubility ([2]; Isopropanol, listed as Compound 1 (Free Acid)): 71.8 to 87.8 mg/mL; Approximate Solubility ([2]; Water, listed as Compound 1 (Free Acid)): 0.03 mg/mL; solubility ([2]; ethanol): 74.9 to 91.5 mg/mL (≈ 212 to 260 mM); solubility ([2]; methanol): 57.4 to 73.1 mg/mL (≈ 163 to 207 mM)
2 | 0.74 mg/mL | 6.93 | 0.83 mg/mL | 7.83 | 0.86 mg/mL | 9.37 | 2.54 mg/mL | 5.91 | 0.41 mg/mL | 6.84 | 7.33 | 1.76 | 1.96 | 2.12 | 0.29 mg/mL | 2.68 | 0.17 mg/mL | 3.21 | 0.14 mg/mL | 9.3 | CC(/C=C/[C@@H]1C[C@]1(C)c1ccc2c(c1)C(C)(C)CCC2(C)C)=C\C(=O)O [Tris Form A] | solubility kinetic at 24 h ([1]; fed synthetic small intestinal fluid, 37 °C, fessif, thermodynamic from solid, Fed Synthetic Small Intestinal Fluid, 37° C., 24 Hrs, read-out: Observed kinetic aqueous solubility S): 0.34 mg/mL (≈ 0.964 mM); kinetic aqueous solubility compared to Compound 1 ([1]; relative to free acid, see Table 1): approximately an order of magnitude, or more; kinetic solubility in synthetic gastric fluid (in words) ([1]; synthetic gastric fluid): poor or undetectable; Approximate Solubility ([2]; 2-Butanol, listed as TRIS salt Form A): >15.00 mg/mL; Approximate Solubility ([2]; Ethanol, listed as TRIS salt Form A): >40.00 mg/mL; Approximate Solubility ([2]; Isopropanol, listed as TRIS salt Form A): 8.83 to 10.60 mg/mL; Approximate Solubility ([2]; Methanol, listed as TRIS salt Form A): >88.00 mg/mL; Approximate Solubility ([2]; Water, listed as TRIS salt Form A): 0.29 mg/mL
